Test results as given in patent US11052089B2, “Methods for inhibiting alpha-v beta-3 expression on cancer stem cells and inhibiting progression to a cancer stem cell phenotype” (The Regents of the University of California, priority 2014, dated 2021).

How the values were obtained:
Type in all cases: cell-based
[1] = tested on: ITGB3, Nanog and OCT4 induction; experiment: mRNA induction of ITGB3, Nanog, OCT4 with GSKJ-4 (FIG. 3, FIG. 11); settings: relative to no serum
Experimental: (§1) FIG. 3A, FIG. 3B, FIG. 3C and FIG. 3D graphically illustrate data showing that treatment with histone modification inhibitor(s) suppresses the stress induced drug resistant phenotype: FIG. 3A illustrates fold expression mRNA relative to serum after ITGB3 induction of control vehicle, 0.10 μM GSKJ4, and 0.25 μM GSKJ4; FIG. 3B illustrates fold expression mRNA relative to serum after Nanog induction of control vehicle, 0.10 μM GSKJ4, and 0.25 μM GSKJ4; FIG. 3C illustrates nM Erlotinib under conditions comprising serum, no serum and no serum and GSKJ4; and FIG. 3D illustrates fold expression mRNA relative to serum after ITGB3 induction with serum, no serum and no serum and GSKJ4.
FIG. 11A schematically illustrates, and FIG. 11B, FIG. 11C, FIG. 11D and FIG. 11E graphically illustrate that GSKJ-4, which targets histone demethylase JMJD3, suppresses β3 expression as well as pluripotent genes Nanog and OCT4, with the conclusion that GSKJ-4 suppresses ITGB3, Nanog and OCT4 induction by inhibiting JMJD3-targeted H3K27me3 demethylation; and FIG. 11B, FIG. 11C, FIG. 11D and FIG. 11E graphically illustrate fold induction mRNA relative to no serum as a function of GSKJ-4 suppression of ITGB3, Nanog and OCT4 induction, with FIG. 11B, FIG. 11C, FIG. 11D and FIG. 11E illustrating levels of ITGB3, Nanog, OCT4 and SOX2, respectively.

[2] = tested on: stress induced drug resistant phenotype; experiment: Stress induced drug resistant phenotype, Erlotinib (FIG. 3C); settings: serum, no serum, no serum and GSKJ4
Experimental: as §1

[3] = tested on: lung cancer cells (HCC827); experiment: 14 day assay for cell surface induction of integrin β3 by nutrient deprivation, cell sorting (FIG. 13, FIG. 14); settings: HCC827, nutrient deprivation (no serum)
ITGB3 = ITGB3 induction in the presence of HAT inhibitor (FIG. 2)
Description: FIG. 2 graphically illustrates data showing that ITGB3 induction is suppressed in the presence of histone acetyltransferase (HAT) inhibitor anacardic acid.

[4] = tested on: integrin β3 expression in HCC827 lung cancer cells; experiment: Stress induced integrin β3 and stem cell gene expression, gels (FIG. 12); settings: nutrient deprivation (without serum), 0.1 uM
Description: FIGS. 12A and 12B illustrate data showing the knockdown of P300 histone acetyl transferase (HAT), a known enzyme that targets H3K27ac, in HCC827 lung cancer cells. Histone acetyl transferase (acetyl p300) activity is increased during nutrient deprivation (without serum) leading to integrin β3 expression, which prevents stress-induced expression of integrin β3 and stem cell genes. Increase in histone acetyltransferase (HAT) p300 activity leads to upregulation of integrin β3. Loss of p300 histone acetyltransferase activity prevents the upregulation of integrin β3. Similar to chemical inhibition of HAT activity with anacardic acid at 0.1 uM concentration, a genetic approach was used to knockdown p300 histone acetyl transferase (HAT), a known enzyme that targets H3K27ac prevents expression of integrin β3 and stem cell genes.

Row | Structure (SMILES) | ITGB3 (β3) induction, fold induction mRNA [1] | Nanog induction, fold induction mRNA [1] | OCT4 induction, fold induction mRNA [1] | stress induced drug resistant phenotype [2] | expansion of integrin β3 expressing stem population [3] | formation of the heterodimeric αVβ3 cell surface expression [3] | induction of integrin β3 gene expression [3] | ITGB3 induction (ITGB3) | downstream stem cell genes expression [4] | stress induced integrin β3 expression [4]
1 | CCOC(=O)CCNc1cc(N2CCc3ccccc3CC2)nc(-c2ccccn2)n1 [GSKJ4] | suppresses | suppresses | suppresses | suppresses | prevents the expansion | prevents | prevents the induction |  |  | 
2 | C=CC/C=C\C/C=C\CCCCCCCc1cccc(O)c1C(=O)O [anacardic acid, 2-hydroxy-6-[(8Z,11Z)-pentadeca-8,11,14-trienyl]benzoic acid] |  |  |  |  |  |  |  | suppressed | prevents | prevents
